Source: ChEMBL document CHEMBL1141381, “Alkynylpyrimidine amide derivatives as potent, selective, and orally active inhibitors of Tie-2 kinase” (J Med Chem, 2007)
pIC50: −log10 of the molar value.

Key:
Angiopoietin-1 receptor [1] = biological target: T1, Angiopoietin-1 receptor (Homo sapiens, UniProt Q02763)
Description: Inhibition of TIE2 by HTRF assay

Angiopoietin-1 receptor [2] = biological target: T1, Angiopoietin-1 receptor; assay: Inhibition of Ang1-stimulated TIE2 phosphorylation in EA.hy 926 endothelial cell line; format: functional, cell-based
[3] = AUC (0-infinity) in Sprague-Dawley rat at 5 mg/kg, po; format: ADME, organism-based; parameters: time infinity, dose 5 mg/kg, route oral; conditions: plasma
[4] = biological target: Tyrosine-protein kinase Fgr (Homo sapiens, UniProt P09769); assay: Inhibition of FGR
[5] = Oral bioavailability in Sprague-Dawley rat at 5 mg/kg, po; format: ADME, organism-based; conditions: in vivo
[6] = Clearance in Sprague-Dawley rat at 2 mg/kg, iv; format: ADME, organism-based; parameters: dose 2 mg/kg, route intravenous; conditions: in vivo
[7] = biological target: T2, Tyrosine-protein kinase ITK/TSK (Homo sapiens, UniProt Q08881); assay: Inhibition of ITK
T2 sequence (Q08881 whole entry): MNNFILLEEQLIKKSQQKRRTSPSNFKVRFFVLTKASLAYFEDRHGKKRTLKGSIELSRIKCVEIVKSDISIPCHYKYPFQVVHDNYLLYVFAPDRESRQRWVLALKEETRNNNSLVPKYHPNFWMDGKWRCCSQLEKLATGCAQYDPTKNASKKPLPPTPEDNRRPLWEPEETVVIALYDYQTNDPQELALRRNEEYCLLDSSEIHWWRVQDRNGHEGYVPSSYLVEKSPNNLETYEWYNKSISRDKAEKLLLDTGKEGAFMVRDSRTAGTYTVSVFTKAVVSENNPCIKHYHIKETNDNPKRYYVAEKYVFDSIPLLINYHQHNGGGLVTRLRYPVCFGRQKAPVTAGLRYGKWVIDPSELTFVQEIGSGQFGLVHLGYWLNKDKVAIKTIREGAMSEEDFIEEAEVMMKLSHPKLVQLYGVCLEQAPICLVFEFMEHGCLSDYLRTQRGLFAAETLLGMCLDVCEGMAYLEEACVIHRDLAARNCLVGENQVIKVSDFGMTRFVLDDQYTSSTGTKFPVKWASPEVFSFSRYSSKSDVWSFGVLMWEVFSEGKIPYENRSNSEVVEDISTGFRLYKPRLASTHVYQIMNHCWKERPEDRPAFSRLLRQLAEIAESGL

[8] = biological target: Hepatocyte growth factor receptor (Homo sapiens, UniProt P08581); assay: Inhibition of c-Met
[9] = biological target: Tyrosine-protein kinase Fes/Fps (Homo sapiens, UniProt P07332); assay: Inhibition of Fes
[10] = biological target: Tyrosine-protein kinase JAK2 (Homo sapiens, UniProt O60674); assay: Inhibition of Jak2
[11] = biological target: Tyrosine-protein kinase CSK (Homo sapiens, UniProt P41240); assay: Inhibition of CSK
[12] = biological target: Angiopoietin-1 receptor (Mus musculus) (UniProt Q02858); assay: Inhibition of angiopoietin-1-induced TIE2 phosphorylation in CD1 NU/NU mouse; format: functional
[13] = biological target: T3, Tyrosine-protein kinase JAK3 (Homo sapiens, UniProt P52333); assay: Inhibition of Jak3
T3 sequence (P52333 whole entry): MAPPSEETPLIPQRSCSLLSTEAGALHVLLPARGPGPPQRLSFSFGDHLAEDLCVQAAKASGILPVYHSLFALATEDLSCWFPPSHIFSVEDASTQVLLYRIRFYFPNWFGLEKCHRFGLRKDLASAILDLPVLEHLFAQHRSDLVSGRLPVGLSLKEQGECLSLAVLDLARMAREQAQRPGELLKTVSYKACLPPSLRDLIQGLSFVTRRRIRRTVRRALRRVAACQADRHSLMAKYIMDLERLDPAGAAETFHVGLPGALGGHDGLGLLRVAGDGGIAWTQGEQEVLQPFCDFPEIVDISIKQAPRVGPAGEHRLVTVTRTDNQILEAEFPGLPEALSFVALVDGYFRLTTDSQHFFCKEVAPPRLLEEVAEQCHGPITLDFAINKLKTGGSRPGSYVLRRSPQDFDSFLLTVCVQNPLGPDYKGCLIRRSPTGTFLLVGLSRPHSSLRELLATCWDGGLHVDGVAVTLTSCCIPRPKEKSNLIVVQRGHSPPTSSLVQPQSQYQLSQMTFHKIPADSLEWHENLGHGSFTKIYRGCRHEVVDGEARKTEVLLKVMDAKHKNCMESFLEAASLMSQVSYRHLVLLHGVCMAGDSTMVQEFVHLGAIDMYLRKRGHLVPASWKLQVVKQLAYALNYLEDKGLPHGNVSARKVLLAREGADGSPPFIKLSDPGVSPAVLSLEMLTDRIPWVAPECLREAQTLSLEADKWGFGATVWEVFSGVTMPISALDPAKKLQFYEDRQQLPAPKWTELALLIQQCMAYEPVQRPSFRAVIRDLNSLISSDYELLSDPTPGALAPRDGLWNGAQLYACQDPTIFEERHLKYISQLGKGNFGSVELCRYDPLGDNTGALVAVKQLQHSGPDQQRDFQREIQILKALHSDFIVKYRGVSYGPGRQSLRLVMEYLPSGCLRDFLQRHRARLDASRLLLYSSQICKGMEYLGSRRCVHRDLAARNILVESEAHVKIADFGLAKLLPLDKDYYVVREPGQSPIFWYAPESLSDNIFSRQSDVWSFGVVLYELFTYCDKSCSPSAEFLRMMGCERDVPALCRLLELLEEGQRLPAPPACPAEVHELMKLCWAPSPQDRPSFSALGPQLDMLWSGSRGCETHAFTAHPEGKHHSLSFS

[14] = biological target: Tyrosine-protein kinase JAK1 (Homo sapiens, UniProt P23458); assay: Inhibition of Jak1
[15] = biological target: Mitogen-activated protein kinase 14 (Homo sapiens, UniProt Q16539); assay: Inhibition of p38alpha
[16] = Plasma protein binding in CD1 NU/NU mouse; format: ADME, cell-free; conditions: read-out: PPB (converted)
[17] = biological target: High affinity nerve growth factor receptor (Homo sapiens, UniProt P04629); assay: Inhibition of TrkA
[18] = biological target: Mast/stem cell growth factor receptor Kit (Homo sapiens, UniProt P10721); assay: Inhibition of c-Kit
Ephrin type-B receptor 4 = biological target: T4, Ephrin type-B receptor 4 (Homo sapiens, UniProt P54760); assay: Inhibition of EpHB4
T4 sequence (P54760 whole entry): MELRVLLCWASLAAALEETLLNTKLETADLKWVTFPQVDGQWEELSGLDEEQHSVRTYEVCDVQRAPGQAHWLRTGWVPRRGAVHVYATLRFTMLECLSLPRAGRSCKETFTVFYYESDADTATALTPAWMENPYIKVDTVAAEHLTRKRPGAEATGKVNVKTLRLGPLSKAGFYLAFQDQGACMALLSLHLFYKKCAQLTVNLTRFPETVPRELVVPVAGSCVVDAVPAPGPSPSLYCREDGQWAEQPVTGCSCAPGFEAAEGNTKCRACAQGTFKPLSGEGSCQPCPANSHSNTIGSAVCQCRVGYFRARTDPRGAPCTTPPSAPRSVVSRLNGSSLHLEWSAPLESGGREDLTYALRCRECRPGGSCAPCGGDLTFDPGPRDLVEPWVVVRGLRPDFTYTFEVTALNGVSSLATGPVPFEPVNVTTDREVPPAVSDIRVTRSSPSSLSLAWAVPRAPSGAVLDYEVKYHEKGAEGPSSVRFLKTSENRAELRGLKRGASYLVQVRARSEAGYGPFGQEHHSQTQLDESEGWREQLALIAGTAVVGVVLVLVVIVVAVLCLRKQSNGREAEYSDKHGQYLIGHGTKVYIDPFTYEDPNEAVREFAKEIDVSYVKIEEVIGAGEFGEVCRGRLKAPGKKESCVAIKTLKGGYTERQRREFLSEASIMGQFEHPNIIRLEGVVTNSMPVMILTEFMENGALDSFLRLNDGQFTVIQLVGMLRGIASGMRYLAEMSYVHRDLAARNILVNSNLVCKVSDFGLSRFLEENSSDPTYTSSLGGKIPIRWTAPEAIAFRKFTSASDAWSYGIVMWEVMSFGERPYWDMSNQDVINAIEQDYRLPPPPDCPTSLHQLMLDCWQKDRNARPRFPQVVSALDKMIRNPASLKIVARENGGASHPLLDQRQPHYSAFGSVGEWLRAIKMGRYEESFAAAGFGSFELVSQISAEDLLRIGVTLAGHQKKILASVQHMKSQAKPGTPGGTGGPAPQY

Mus musculus = assay: Plasma concentration in CD1 NU/NU mouse at 10 mg/kg; format: ADME, organism-based; parameters: dose 10 mg/kg; conditions: in vivo
[19] = biological target: Tyrosine-protein kinase Lyn (Homo sapiens, UniProt P07948); assay: Inhibition of Lyn
[20] = Half life in Sprague-Dawley rat at 2 mg/kg, iv; format: ADME, organism-based; parameters: dose 2 mg/kg, route intravenous; conditions: in vivo
Insulin receptor = Insulin receptor (Homo sapiens, UniProt P06213); assay: Inhibition of INSR
[21] = biological target: Angiopoietin-1 receptor (Mus musculus) (UniProt Q02858); assay: Inhibition of angiopoietin-1-induced TIE2 phosphorylation in CD1 NU/NU mouse at 10 mg/kg; format: functional, organism-based; parameters: dose 10 mg/kg
[22] = Volume of distribution in Sprague-Dawley rat at 2 mg/kg, iv; format: ADME, organism-based; parameters: dose 2 mg/kg, route intravenous; conditions: in vivo, read-out: Vss
[23] = biological target: Vascular endothelial growth factor receptor 2 (Homo sapiens, UniProt P35968)
[24] = biological target: Tyrosine-protein kinase Lck (Homo sapiens, UniProt P06239)
Tyrosine-protein kinase Lck, sequence (P06239 whole entry): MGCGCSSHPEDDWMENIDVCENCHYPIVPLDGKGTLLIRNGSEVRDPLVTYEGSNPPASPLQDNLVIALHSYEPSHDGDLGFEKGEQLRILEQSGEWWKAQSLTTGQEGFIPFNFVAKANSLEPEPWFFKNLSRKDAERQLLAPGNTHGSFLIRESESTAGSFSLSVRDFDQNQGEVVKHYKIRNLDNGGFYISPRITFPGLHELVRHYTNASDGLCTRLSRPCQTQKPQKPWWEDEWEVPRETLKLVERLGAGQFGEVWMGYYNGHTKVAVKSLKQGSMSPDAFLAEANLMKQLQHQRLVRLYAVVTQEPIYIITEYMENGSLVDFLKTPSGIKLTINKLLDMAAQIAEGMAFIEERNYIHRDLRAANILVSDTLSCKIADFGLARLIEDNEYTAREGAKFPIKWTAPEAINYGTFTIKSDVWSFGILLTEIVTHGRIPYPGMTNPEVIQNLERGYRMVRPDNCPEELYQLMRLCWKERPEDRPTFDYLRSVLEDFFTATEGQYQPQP

Vascular endothelial growth factor receptor 2, sequence (P35968 whole entry): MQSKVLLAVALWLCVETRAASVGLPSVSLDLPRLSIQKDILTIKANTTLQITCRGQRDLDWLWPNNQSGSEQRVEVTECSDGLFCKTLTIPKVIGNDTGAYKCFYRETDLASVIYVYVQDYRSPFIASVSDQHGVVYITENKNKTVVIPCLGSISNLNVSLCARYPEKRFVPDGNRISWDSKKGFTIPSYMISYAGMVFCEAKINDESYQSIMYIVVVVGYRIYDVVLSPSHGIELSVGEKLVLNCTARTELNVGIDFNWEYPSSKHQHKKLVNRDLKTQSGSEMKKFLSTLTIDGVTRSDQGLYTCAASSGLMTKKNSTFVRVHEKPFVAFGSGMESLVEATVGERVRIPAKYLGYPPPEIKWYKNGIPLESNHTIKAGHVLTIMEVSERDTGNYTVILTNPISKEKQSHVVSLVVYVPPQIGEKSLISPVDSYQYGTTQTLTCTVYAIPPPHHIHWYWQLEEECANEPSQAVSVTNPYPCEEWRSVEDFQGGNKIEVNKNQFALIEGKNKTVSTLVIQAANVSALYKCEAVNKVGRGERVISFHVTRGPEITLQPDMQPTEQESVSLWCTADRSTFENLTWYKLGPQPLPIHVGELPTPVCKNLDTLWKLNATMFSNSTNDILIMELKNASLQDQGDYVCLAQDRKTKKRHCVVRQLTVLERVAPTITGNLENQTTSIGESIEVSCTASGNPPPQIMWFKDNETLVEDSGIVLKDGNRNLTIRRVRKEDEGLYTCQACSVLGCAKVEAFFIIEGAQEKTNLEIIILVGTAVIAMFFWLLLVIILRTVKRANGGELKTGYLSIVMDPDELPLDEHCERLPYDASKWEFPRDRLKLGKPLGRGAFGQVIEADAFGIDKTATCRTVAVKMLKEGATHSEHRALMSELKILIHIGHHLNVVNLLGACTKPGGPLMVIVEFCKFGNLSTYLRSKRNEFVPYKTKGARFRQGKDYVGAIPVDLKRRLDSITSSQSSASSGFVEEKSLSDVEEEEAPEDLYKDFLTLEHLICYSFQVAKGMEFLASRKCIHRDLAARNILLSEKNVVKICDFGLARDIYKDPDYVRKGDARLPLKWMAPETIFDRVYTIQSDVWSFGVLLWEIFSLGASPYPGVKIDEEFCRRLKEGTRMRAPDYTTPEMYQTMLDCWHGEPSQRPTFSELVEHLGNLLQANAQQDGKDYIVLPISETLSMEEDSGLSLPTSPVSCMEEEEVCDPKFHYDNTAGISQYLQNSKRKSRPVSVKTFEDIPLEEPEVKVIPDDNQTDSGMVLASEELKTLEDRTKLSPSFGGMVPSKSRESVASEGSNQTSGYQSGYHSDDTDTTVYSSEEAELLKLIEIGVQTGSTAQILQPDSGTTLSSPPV
T1 sequence (Q02763 whole entry): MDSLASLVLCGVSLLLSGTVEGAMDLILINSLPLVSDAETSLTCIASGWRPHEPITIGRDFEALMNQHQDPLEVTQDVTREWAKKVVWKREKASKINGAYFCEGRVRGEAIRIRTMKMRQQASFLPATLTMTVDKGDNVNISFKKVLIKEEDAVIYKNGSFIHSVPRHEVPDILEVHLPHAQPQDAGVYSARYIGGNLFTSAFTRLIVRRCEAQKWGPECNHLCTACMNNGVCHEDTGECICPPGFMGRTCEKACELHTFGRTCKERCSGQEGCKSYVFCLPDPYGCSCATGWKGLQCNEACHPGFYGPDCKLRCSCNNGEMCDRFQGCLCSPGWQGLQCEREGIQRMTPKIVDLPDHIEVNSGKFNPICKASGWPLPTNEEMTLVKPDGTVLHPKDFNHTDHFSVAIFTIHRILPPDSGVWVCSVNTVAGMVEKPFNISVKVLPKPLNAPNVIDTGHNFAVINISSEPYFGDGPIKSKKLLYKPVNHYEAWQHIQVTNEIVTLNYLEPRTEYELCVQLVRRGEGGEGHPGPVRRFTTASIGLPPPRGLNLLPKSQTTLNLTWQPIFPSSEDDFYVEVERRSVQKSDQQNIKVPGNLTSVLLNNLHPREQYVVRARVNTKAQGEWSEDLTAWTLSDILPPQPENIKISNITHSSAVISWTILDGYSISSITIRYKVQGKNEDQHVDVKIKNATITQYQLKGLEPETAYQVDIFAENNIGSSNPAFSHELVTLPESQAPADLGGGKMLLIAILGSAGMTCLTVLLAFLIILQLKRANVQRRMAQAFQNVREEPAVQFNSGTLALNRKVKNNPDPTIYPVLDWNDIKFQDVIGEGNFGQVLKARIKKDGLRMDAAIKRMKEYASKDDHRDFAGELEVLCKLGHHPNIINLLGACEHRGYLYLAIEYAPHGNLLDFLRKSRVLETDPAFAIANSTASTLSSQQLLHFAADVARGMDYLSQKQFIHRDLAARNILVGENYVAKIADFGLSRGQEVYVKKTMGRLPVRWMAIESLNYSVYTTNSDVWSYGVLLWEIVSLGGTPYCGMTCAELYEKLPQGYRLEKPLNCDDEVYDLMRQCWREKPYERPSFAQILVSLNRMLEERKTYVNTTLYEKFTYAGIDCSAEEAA
Angiopoietin-1 receptor (Mus musculus), sequence (Q02858 whole entry): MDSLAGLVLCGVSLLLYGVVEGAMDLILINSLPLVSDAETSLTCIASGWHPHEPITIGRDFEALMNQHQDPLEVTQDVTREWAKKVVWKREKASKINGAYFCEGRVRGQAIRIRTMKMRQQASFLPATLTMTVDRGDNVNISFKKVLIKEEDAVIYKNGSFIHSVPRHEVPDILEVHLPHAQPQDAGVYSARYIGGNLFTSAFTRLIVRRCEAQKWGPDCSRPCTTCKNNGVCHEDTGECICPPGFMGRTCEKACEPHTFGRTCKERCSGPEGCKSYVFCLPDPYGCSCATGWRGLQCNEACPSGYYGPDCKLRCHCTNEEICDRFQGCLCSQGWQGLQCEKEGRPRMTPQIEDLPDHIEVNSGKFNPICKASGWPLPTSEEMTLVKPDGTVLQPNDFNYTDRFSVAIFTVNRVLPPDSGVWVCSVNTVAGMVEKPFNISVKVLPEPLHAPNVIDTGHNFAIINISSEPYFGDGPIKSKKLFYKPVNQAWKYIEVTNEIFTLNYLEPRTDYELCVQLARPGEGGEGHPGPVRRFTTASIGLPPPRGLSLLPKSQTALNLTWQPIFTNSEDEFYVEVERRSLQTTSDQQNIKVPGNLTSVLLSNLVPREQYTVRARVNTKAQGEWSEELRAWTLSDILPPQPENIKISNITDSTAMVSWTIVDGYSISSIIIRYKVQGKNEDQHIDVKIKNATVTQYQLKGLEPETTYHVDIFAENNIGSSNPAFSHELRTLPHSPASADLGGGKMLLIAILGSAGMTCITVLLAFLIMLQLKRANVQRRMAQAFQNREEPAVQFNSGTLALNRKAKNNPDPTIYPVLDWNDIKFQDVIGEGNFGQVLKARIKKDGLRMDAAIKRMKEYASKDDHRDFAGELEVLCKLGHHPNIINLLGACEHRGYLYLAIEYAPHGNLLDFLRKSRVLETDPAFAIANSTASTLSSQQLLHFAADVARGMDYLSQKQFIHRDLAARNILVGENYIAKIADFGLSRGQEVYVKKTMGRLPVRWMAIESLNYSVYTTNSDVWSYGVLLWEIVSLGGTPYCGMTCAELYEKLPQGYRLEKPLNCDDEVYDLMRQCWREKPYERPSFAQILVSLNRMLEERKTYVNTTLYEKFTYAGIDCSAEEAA
Tyrosine-protein kinase Lyn, sequence (P07948 whole entry): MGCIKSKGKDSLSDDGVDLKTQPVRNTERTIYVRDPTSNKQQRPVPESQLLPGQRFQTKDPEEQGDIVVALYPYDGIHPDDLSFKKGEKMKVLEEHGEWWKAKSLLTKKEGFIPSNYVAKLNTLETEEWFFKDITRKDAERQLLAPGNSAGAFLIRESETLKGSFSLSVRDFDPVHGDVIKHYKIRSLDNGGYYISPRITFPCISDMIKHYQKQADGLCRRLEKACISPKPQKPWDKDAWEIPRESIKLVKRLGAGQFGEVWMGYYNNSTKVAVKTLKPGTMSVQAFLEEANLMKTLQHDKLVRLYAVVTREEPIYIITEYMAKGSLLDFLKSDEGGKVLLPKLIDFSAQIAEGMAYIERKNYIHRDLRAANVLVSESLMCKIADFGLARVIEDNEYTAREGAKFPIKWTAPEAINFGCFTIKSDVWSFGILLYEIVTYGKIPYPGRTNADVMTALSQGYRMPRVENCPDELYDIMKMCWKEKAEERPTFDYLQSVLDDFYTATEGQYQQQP
Mitogen-activated protein kinase 14, sequence (Q16539 whole entry): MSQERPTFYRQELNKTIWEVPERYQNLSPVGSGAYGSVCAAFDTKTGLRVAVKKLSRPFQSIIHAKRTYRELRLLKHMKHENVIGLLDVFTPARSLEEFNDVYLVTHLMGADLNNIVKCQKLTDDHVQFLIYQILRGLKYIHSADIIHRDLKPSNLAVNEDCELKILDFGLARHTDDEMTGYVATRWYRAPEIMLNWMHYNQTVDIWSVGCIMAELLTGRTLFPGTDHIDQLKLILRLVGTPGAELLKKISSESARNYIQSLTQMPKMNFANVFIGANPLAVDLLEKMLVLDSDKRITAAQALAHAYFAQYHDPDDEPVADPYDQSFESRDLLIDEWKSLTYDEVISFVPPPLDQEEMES

Work on `CN(C)[C@@H]1CCCN(c2ccc(C(F)(F)F)cc2NC(=O)c2cc(C#Cc3cnc(N)nc3)ccc2F)C1` yielded a pIC50 (Angiopoietin-1 receptor [1]) of 7.36 and a pIC50 (Angiopoietin-1 receptor [2]) of 7.01.
With `CN(C)[C@H]1CCCN(c2ccc(C(F)(F)F)cc2NC(=O)c2cc(C#Cc3cnc(N)nc3)ccc2F)C1` the AUC(0-inf) [3] was 800 ng·h/mL, the pIC50 [4] was 7.37 and the bioavailability [5] was 39%. It also gave a clearance [6] of 40 mL/min/kg, a pIC50 [7] of less than 5.30 and a pIC50 [8] of less than 5.17. The pIC50 [9] was 6.04, the pIC50 [10] was 6.26 and the pIC50 [11] was 5.74. For the same compound, the Activity [12] was “Dose-dependent effect”, the pIC50 [13] was 5.77 and the pIC50 (Angiopoietin-1 receptor [1]) was 8.30. For the same compound, the pIC50 [14] was 5.89, the pIC50 [15] was less than 5.08 and the fraction unbound [16] was 0.021. The pIC50 [17] was 7.74, the pIC50 [18] was 5.55 and the pIC50 (Ephrin type-B receptor 4) was 6.54. The concentration (Mus musculus) was 1660 nM, the pIC50 [19] was 6.74 and the half-life [20] was 474 min. It also gave a pIC50 (Insulin receptor) of 5.54, an inhibition [21] of 50% and a Vd [22] of 11.8 L/kg. The pIC50 (Angiopoietin-1 receptor [2]) was 8.10.
In the case of `Cc1ccc(C(=O)Nc2cc(C(F)(F)F)ccc2N2CCCCC2)cc1C#Cc1cnc(N)nc1`, the pIC50 [23] was less than 6.00.
For `CN[C@H]1CCCN(c2ccc(C(F)(F)F)cc2NC(=O)c2cc(C#Cc3cnc(N)nc3)ccc2F)C1`, the AUC(0-inf) [3] was 18600 ng·h/mL, the bioavailability [5] was 54% and the clearance [6] was 2.5 mL/min/kg. It also gave a half-life [20] of 636 min and a Vd [22] of 2.2 L/kg.
`Cc1ccc(C(=O)Nc2cccc(C(F)(F)F)c2)cc1-c1ccc2nc(N)ncc2c1` showed a pIC50 (Angiopoietin-1 receptor [1]) of 9.00 and a pIC50 [24] greater than 9.00.
In the case of `COc1ccc(C#Cc2cnc(N)nc2)cc1C(=O)Nc1cc(C(F)(F)F)ccc1N1CCCCC1`, the pIC50 [24] was less than 4.60.
Compound `Cc1ccc(C(=O)Nc2cccc(C(F)(F)F)c2)cc1C#Cc1cnc2[nH]cnc2c1` has a pIC50 [23] greater than 9.00 and a pIC50 [24] greater than 9.00.
In the case of `Nc1ncc(C#Cc2cccc(C(=O)Nc3cccc(C(F)(F)F)c3)c2)cn1`, the pIC50 [23] was greater than 9.00.
Compound `Nc1ncc(C#Cc2ccc(F)c(C(=O)Nc3cc(C(F)(F)F)ccc3N3CCC[C@H](N)C3)c2)cn1` has an AUC(0-inf) [3] of 9300 ng·h/mL, a bioavailability [5] of 51% and a clearance [6] of 5.33 mL/min/kg. For the same compound, the half-life [20] was 684 min and the Vd [22] was 4.6 L/kg.
Work on `Nc1ncc(C#Cc2cccc(C(=O)Nc3cc(C(F)(F)F)ccc3N3CCCCC3)c2)cn1` yielded a pIC50 [23] of less than 6.00.
